Reference: ChEMBL document CHEMBL3885861, “Open TG-GATES”

Species: Rattus norvegicus
Assay: Open TG-GATES - Regimen: Single
Assay type: toxicity, organism-based, Sprague-Dawley
Design: regimen Single, gender Male, age 6 weeks
Settings: in vivo, po, 4000 mg/kg, route gavage, dose level High; for APTT / Bas / Eos / Fbg / Hb / Ht / Lym / MCH / MCHC / MCV / Mono / Neu / PT / Plat / RBC / Ret / WBC: tissue Blood; for KIDNEY_L / KIDNEY_R / KIDNEY_TOTAL: tissue Kidney; for LIVER: tissue Liver; for A/G / ALP / ALT / AST / BUN / CRE / Ca / Cl / DBIL / GLC / IP / K / LDH / Na / PL / RALB / TBIL / TC / TG / TP / gamma-GTP: tissue Plasma

What does the source list for `CCO` [ALCOHOL]?
TERMINAL_BW (3 h): 206.9 g; APTT (3 h): 17.9 s; Bas (3 h): 0%; Eos (3 h): 1.6%; Fbg (3 h): 188.4 mg/dL; Hb (3 h): 13.4 g/dL; Ht (3 h): 40.1%; Lym (3 h): 78%; MCH (3 h): 21.9 pg; MCHC (3 h): 33.4%; MCV (3 h): 65.6 fL; Mono (3 h): 7.2%; Neu (3 h): 13.8%; PT (3 h): 12.2 s; Plat (3 h): 110.6 x10_4/uL; RBC (3 h): 612.2 x10_4/ul; Ret (3 h): 9.9%; WBC (3 h): 86.8 x10_2/uL; KIDNEY_L (3 h): 1 g; KIDNEY_R (3 h): 1 g; KIDNEY_TOTAL (3 h): 1.9 g; LIVER (3 h): 9.6 g; A/G (3 h): 2.5; ALP (3 h): 733.4 IU/L; ALT (3 h): 35.2 IU/L; AST (3 h): 65.8 IU/L; BUN (3 h): 8.8 mg/dL; CRE (3 h): 0.5 mg/dL; Ca (3 h): 10.3 mg/dL; Cl (3 h): 104.4 meq/L; DBIL (3 h): 0.02 mg/dL; GLC (3 h): 212.4 mg/dL; IP (3 h): 9.1 mg/dL; K (3 h): 4.7 meq/L; LDH (3 h): 106.2 IU/L; Na (3 h): 139.8 meq/L; PL (3 h): 148.4 mg/dL; RALB (3 h): 3.8 g/dL; TBIL (3 h): 0.4 mg/dL; TC (3 h): 79.8 mg/dL; TG (3 h): 77.8 mg/dL; TP (3 h): 5.3 g/dL; gamma-GTP (3 h): 1.8 IU/L; TERMINAL_BW (6 h): 206.9 g; APTT (6 h): 19.1 s; Bas (6 h): 0%; Eos (6 h): 1.2%; Fbg (6 h): 205 mg/dL; Hb (6 h): 13.5 g/dL; Ht (6 h): 40.4%; Lym (6 h): 81%; MCH (6 h): 21.3 pg; MCHC (6 h): 33.4%; MCV (6 h): 63.9 fL; Mono (6 h): 4.6%; Neu (6 h): 13.4%; PT (6 h): 11.8 s; Plat (6 h): 112.3 x10_4/uL; RBC (6 h): 632.8 x10_4/ul; Ret (6 h): 13.6%; WBC (6 h): 124.9 x10_2/uL; KIDNEY_L (6 h): 1 g; KIDNEY_R (6 h): 1 g; KIDNEY_TOTAL (6 h): 1.9 g; LIVER (6 h): 9.6 g; A/G (6 h): 2.3; ALP (6 h): 839.4 IU/L; ALT (6 h): 31 IU/L; AST (6 h): 59.4 IU/L; BUN (6 h): 8.6 mg/dL; CRE (6 h): 0.5 mg/dL; Ca (6 h): 10.4 mg/dL; Cl (6 h): 104.2 meq/L; DBIL (6 h): 0.078 mg/dL; GLC (6 h): 204.6 mg/dL; IP (6 h): 9.7 mg/dL; K (6 h): 5 meq/L; LDH (6 h): 78 IU/L; Na (6 h): 139 meq/L; PL (6 h): 153.6 mg/dL; RALB (6 h): 3.7 g/dL; TBIL (6 h): 0.4 mg/dL; TC (6 h): 82.6 mg/dL; TG (6 h): 46 mg/dL; TP (6 h): 5.4 g/dL; gamma-GTP (6 h): 1.4 IU/L; TERMINAL_BW (9 h): 200.3 g; APTT (9 h): 17.6 s; Bas (9 h): 0%; Eos (9 h): 1%; Fbg (9 h): 205.2 mg/dL; Hb (9 h): 13.5 g/dL; Ht (9 h): 40.5%; Lym (9 h): 76.4%; MCH (9 h): 21.8 pg; MCHC (9 h): 33.4%; MCV (9 h): 65.3 fL; Mono (9 h): 7%; Neu (9 h): 15.6%; PT (9 h): 12 s; Plat (9 h): 107.8 x10_4/uL; RBC (9 h): 621.6 x10_4/ul; Ret (9 h): 9.9%; WBC (9 h): 72.9 x10_2/uL; KIDNEY_L (9 h): 0.9 g; KIDNEY_R (9 h): 1 g; KIDNEY_TOTAL (9 h): 1.9 g; LIVER (9 h): 8.2 g; A/G (9 h): 2.7; ALP (9 h): 857.6 IU/L; ALT (9 h): 30.6 IU/L; AST (9 h): 65.8 IU/L; BUN (9 h): 12.8 mg/dL; CRE (9 h): 0.4 mg/dL; Ca (9 h): 10.8 mg/dL; Cl (9 h): 105.6 meq/L; DBIL (9 h): 0.04 mg/dL; GLC (9 h): 190.8 mg/dL; IP (9 h): 10 mg/dL; K (9 h): 5 meq/L; LDH (9 h): 96.4 IU/L; Na (9 h): 137 meq/L; PL (9 h): 154 mg/dL; RALB (9 h): 4.1 g/dL; TBIL (9 h): 0.4 mg/dL; TC (9 h): 79.8 mg/dL; TG (9 h): 49 mg/dL; TP (9 h): 5.6 g/dL; gamma-GTP (9 h): 1.4 IU/L; TERMINAL_BW (24 h): 210.8 g; APTT (24 h): 16.5 s; Bas (24 h): 0%; Eos (24 h): 2%; Fbg (24 h): 202 mg/dL; Hb (24 h): 13.8 g/dL; Ht (24 h): 40.7%; Lym (24 h): 70.4%; MCH (24 h): 21.5 pg; MCHC (24 h): 33.8%; MCV (24 h): 63.5 fL; Mono (24 h): 11.4%; Neu (24 h): 16.4%; PT (24 h): 11.8 s; Plat (24 h): 115.4 x10_4/uL; RBC (24 h): 640.6 x10_4/ul; Ret (24 h): 10.2%; WBC (24 h): 84.1 x10_2/uL; KIDNEY_L (24 h): 0.9 g; KIDNEY_R (24 h): 1 g; KIDNEY_TOTAL (24 h): 1.9 g; LIVER (24 h): 9.5 g; A/G (24 h): 2.6; ALP (24 h): 971 IU/L; ALT (24 h): 41.8 IU/L; AST (24 h): 68.2 IU/L; BUN (24 h): 17.6 mg/dL; CRE (24 h): 0.5 mg/dL; Ca (24 h): 10.9 mg/dL; Cl (24 h): 103.4 meq/L; DBIL (24 h): 0.014 mg/dL; GLC (24 h): 200.4 mg/dL; IP (24 h): 8.5 mg/dL; K (24 h): 4.9 meq/L; LDH (24 h): 102.6 IU/L; Na (24 h): 138 meq/L; PL (24 h): 155 mg/dL; RALB (24 h): 4 g/dL; TBIL (24 h): 0.3 mg/dL; TC (24 h): 80.8 mg/dL; TG (24 h): 109.8 mg/dL; TP (24 h): 5.5 g/dL; gamma-GTP (24 h): 1.2 IU/L
